According to patent US12029791B2, “Therapeutic conjugates” (Totus Medicines Inc., priority 2019, dated 2024):

Each compound was assayed on PI3-kinase (assay: NanoBRET screening of ARCS for covalent binding in transfected HEK293 cells). Details: HEK293 cells transfected with NanoLuc-target fusion, overnight incubation, washout.
Design: species or system Human
Description: Human embryonic kidney 293-H (HEK 293, Gibco 293-H, #11631017) cell lines are maintained in Dulbecco's Modified Eagle Medium, high glucose, pyruvate (DMEM, Gibco, #11995065) supplemented with 10% fetal bovine serum (FBS, Gibco, #10082147) and 1× penicillin-streptomycin (100× solution, Gibco, #15140148) at 37° C. and 5% CO2 in a water-saturated incubator. Cell are trypsinized using 0.05% or 0.25% Trypsin-EDTA solution (Trypsin-EDTA, phenol red, Gibco, #25200056 (0.25%) or #25300054). Opti-MEM media supplemented with 10% fetal bovine serum (Opti-MEM I reduced serum media, no phenol red, Gibco, #11058021) is used for culturing cells overnight for NanoBRET readout experiments.
HEK293 cells are cultivated appropriately prior to assay. The medium from cell flask is removed via aspiration, washed 1× with PBS followed by aspiration, trypsinized, and cells are allowed to dissociate from the flask. Trypsin is neutralized using growth medium and cells are pelleted via centrifugation at 200×g for 5 minutes. The medium is aspirated and the cells are resuspended into a single cell suspension using Opti-MEM I supplemented with 10% FBS. The cell density is adjusted to 2×10^5/mL in Opti-MEM I supplemented with 10% FBS in a sterile, conical tube. The cells are transfected and aliquoted directly in a 96-well plate for the NanoBRET assay the next day, and therefore, the cells are cultured overnight in Opti-MEM. The cells are also transfected in bulk and dispensed into a 96-well plate to allow cells to adhere to the plate overnight, thereby enabling washout studies.
The lipid:DNA complexes are prepared as follows:
A 10 μg/mL solution of DNA is prepared in Opti-MEM without serum. This solution contains the following ratios of carrier DNA and DNA encoding NanoLuc fused to the biological target. Serial dilution steps may be warranted to accurately dilute the NanoLuc fusion DNA. Added, in order, the following reagents to a sterile polystyrene test tube: 1 mL of Opti-MEM without phenol red; 9.0 μg/mL of carrier DNA; 1.0 μg/mL of NanoLuc fusion DNA (for some targets, the amount is less). The reagents are mixed thoroughly.
30 μL of FuGENE HD is added into each mL of DNA mixture to form lipid:DNA complex. […] It is mixed by pipetting up and down 5-10 times and incubated at room temperature for 20 minutes to allow complexes to form. 1 part (e.g. 1 mL) of lipid:DNA complex is mixed with 20 parts (e.g. 20 mL) of HEK293 cells in suspension at 2×10^5/mL and mixed gently by pipetting up and down 5 times in a sterile, conical tube. Larger or smaller bulk transfections are scaled accordingly, using this ratio. 100 μL cells+lipid:DNA complex is dispensed into a sterile, tissue-culture treated 96-well plate (20,000 cells/well), and incubated at least 16 hours to allow expression. The cells are incubated in a 37° C.+5% CO2 incubator for >16 hrs. A serially diluted inhibitor or test compound is prepared at 100× final concentration in 100% DMSO. The serially diluted inhibitor stock is prepared in PCR plates. 1 μL per well of 100× serially diluted inhibitor/test compound is added to the cells in 96-well plates that have been transiently transfected overnight and mixed by tapping the plate by hand. The plate is incubated at 37° C.+5% CO2 incubator overnight. A 1× solution of substrate mix (500× stock) and appropriate concentration of tracer is prepared in Opti-Mem. The cells are washed by setting a plate washer to the 96 well plate 5× in PBS pH 7.4 by adding 200 μL PBS each time. The cells are incubated at 37° C. for 2 hours. 100 μL of the 1× Substrate-Tracer solution is added and the 96 well plate is gently tapped to mix. The plate on plate reader is read every hour for the next 6 hours. The binding assays of some ARCS are shown below. Compound 1-XXXII formed a covalent bond with PI3-kinase from about 5% to 20%. ARCS selected from the group consisting of Compounds 1-101, 1-102, 1-113, 1-114, 1-119, 1-120, 1-125 and 1-126 formed a covalent bond with PI3-kinase from about 80% to 100%. […]

SMILES | Binding (Percent inhibition)
C=CC(=O)Nc1ccc(C(=O)N2CCN(Cc3cc4c(N5CCOCC5)nc(-c5cnc(NC(=O)OC)cc5C(F)(F)F)nn4c3)CC2)cc1 [Compound 1-171] | ++ (50-80%)
CC#CC(=O)NCC(=O)N1CCN(Cc2cc3c(N4CCOCC4)nc(-c4cnc(NC(=O)OC)cc4C(F)(F)F)nn3c2)CC1 [Compound 1-126] | +++ (>80%)
C=CC(=O)Nc1ccc(CCNCc2cc3c(N4CCOCC4)nc(-c4cnc(NC(=O)OC)cc4C(F)(F)F)nn3c2)cc1 [Compound 1-172] | ++ (50-80%)
COC(=O)Nc1cc(C(F)(F)F)c(-c2nc(N3CCOCC3)c3cc(CN4CCN(C(=O)CCC(=O)/C=C/CN(C)C)CC4)cn3n2)cn1 [Compound 1-119] | +++ (>80%)
CC#CC(=O)CCC(=O)N1CCN(Cc2cc3c(N4CCOCC4)nc(-c4cnc(NC(=O)OC)cc4C(F)(F)F)nn3c2)CC1 [Compound 1-125] | +++ (>80%)
C=CC(=O)CCC(=O)N1CCN(Cc2cc3c(N4CCOCC4)nc(-c4cnc(NC(=O)OC)cc4C(F)(F)F)nn3c2)CC1 [Compound 1-101] | +++ (>80%)
COC(=O)Nc1cc(C(F)(F)F)c(-c2nc(N3CCOCC3)c3cc(CN4CCN(C(=O)CNC(=O)C=C(C)C)CC4)cn3n2)cn1 [Compound 1-114] | +++ (>80%)
COC(=O)Nc1cc(C(F)(F)F)c(-c2nc(N3CCOCC3)c3cc(CN4CCN(C(=O)CCC(=O)C=C(C)C)CC4)cn3n2)cn1 [Compound 1-113] | +++ (>80%)
COC(=O)Nc1cc(C(F)(F)F)c(-c2nc(N3CCOCC3)c3cc(CN4CCN(C(=O)CNC(=O)/C=C/CN(C)C)CC4)cn3n2)cn1 [Compound 1-120] | +++ (>80%)
COC(=O)Nc1cc(C(F)(F)F)c(-c2nc(N3CCOCC3)c3cc(CN4CCNCC4)cn3n2)cn1 [Compound 1-XXXII] | + (<20%)
C=CC(=O)NCC(=O)N1CCN(Cc2cc3c(N4CCOCC4)nc(-c4cnc(NC(=O)OC)cc4C(F)(F)F)nn3c2)CC1 [Compound 1-102] | +++ (>80%)
